Read-outs that look alike come from different tables or passages of the source.
Assays:
[1] = test system: Leptosphaeria nodorum (LEPTNO); experiment: In vitro fungitoxicity of hydrazones with and without copper towards Leptosphaeria nodorum (Example 26); assay type: cell-based; conditions: 72 h at 25° C.; for inhibition of growth at 0.05 µg/mL: Parastagonospora nodorum, 72 h, read-out: LEPTNO % Inhn. Minus Copper Observed
[2] = test system: Phytophthora infestans; assay type: in vivo, Phytophthora infestans on tomato; conditions: applied 24 h before inoculation, assessed 7 days after inoculation
[3] = compound 0.05 μg/mL, copper-minus medium
[4] = compound 0.05 μg/mL, copper-plus medium (CuCl2.2H2O)
[5] = hydrazone 50 ppm + 50 μM CuCl2.2H2O, tomato
[6] = copper-minus medium, test compound Concn. 0.05 μg/mL
[7] = copper-plus medium (CuCl2 10 μM), test compound Concn. 0.05 μg/mL
[8] = hydrazone 50 ppm with 50 μM CuCl2.2H2O, tomato late blight

For COc1cccc(C(=O)N/N=C/c2cc(Br)ccc2O)c1C [Example 105], the melting point was 199 to 201 °C, the inhibition of growth at 0.05 µg/mL [1, 3] was 5.8% and the “LEPTNO % Inhn. Plus Copper Observed” value [1, 4] was 95.2%. The “TLB % Control” value [2, 5] was 74.6%.

In the case of C/C(=N\NC(=O)c1ccc(Cl)cc1)c1cccc(Cl)c1O [Example 498], the melting point is reported as 208 to 209 °C, the inhibition of growth at 0.05 µg/mL [1, 6] is reported as 0% and the “LEPTNO % Inhn. Plus Copper Observed” value [1, 7] is reported as 97.5%. For the same compound, the “TLB % Control” value [2, 8] was 85.0%.

In the case of O=C(N/N=C/c1ccc(Cl)c(Cl)c1O)c1cccc(Cl)c1 [Example 358], the melting point is reported as 219 to 222 °C, the inhibition of growth at 0.05 µg/mL [1, 6] is reported as 12.7% and the “LEPTNO % Inhn. Plus Copper Observed” value [1, 7] is reported as 98.3%. For the same compound, the “TLB % Control” value [2, 8] was 100.0%.

For Cc1ccc(C(=O)N/N=C/c2cc(Cl)cc(C(F)(F)F)c2O)c(O)c1 [Example 386], the melting point was 252 to 254 °C, the inhibition of growth at 0.05 µg/mL [1, 6] was 41.1% and the “LEPTNO % Inhn. Plus Copper Observed” value [1, 7] was 98.4%. For the same compound, the “TLB % Control” value [2, 8] was 100.0%.

With Cc1cccc(C(=O)N/N=C/c2cccc(Cl)c2O)c1 [Example 423] the melting point was 166 to 169 °C, the inhibition of growth at 0.05 µg/mL [1, 6] was 0.8% and the “LEPTNO % Inhn. Plus Copper Observed” value [1, 7] was 98.0%. The “TLB % Control” value [2, 8] was 98.0%.

With O=C(N/N=C/c1cc(Cl)cc(Br)c1O)c1ccc(F)cc1 [Example 415] the melting point was 200 to 211 °C, the inhibition of growth at 0.05 µg/mL [1, 6] was 2.9% and the “LEPTNO % Inhn. Plus Copper Observed” value [1, 7] was 96.1%. The “TLB % Control” value [2, 8] was 100.0%.

With C/C(=N\NC(=O)c1ccccc1O)c1cc(F)cc(F)c1O [Example 583] the melting point was 308 to 323 °C, the inhibition of growth at 0.05 µg/mL [1, 6] was 13.2% and the “LEPTNO % Inhn. Plus Copper Observed” value [1, 7] was 98.0%. The “TLB % Control” value [2, 8] was 100.0%.

For Cc1ccc(C(=O)N/N=C/c2cc(Cl)cc(C(F)(F)F)c2O)cc1 [Example 377], the melting point was 276 to 278 °C, the inhibition of growth at 0.05 µg/mL [1, 6] was 29.9% and the “LEPTNO % Inhn. Plus Copper Observed” value [1, 7] was 97.6%. The “TLB % Control” value [2, 8] was 100.0%.

For CC/C(=N\NC(=O)c1c(Cl)cccc1Cl)c1ccccc1O [Example 48], the melting point was 181 to 184 °C, the inhibition of growth at 0.05 µg/mL [1, 3] was 0.3% and the “LEPTNO % Inhn. Plus Copper Observed” value [1, 4] was 94.6%. For the same compound, the “TLB % Control” value [2, 5] was 40.0%.

In the case of O=C(N/N=C/c1cc(Cl)cc(Cl)c1O)c1ccc(Cl)cc1O [Example 474], the melting point is reported as 276 to 279 °C, the inhibition of growth at 0.05 µg/mL [1, 6] is reported as 39.2% and the “LEPTNO % Inhn. Plus Copper Observed” value [1, 7] is reported as 97.6%. The “TLB % Control” value [2, 8] was 100.0%.

For COc1ccc(/C(C)=N/NC(=O)c2ccc(C(F)(F)F)cc2)c(O)c1OC [Example 560], the melting point was 229 to 233 °C, the inhibition of growth at 0.05 µg/mL [1, 6] was 1.3% and the “LEPTNO % Inhn. Plus Copper Observed” value [1, 7] was 90.7%. The “TLB % Control” value [2, 8] was 65.0%.

For CSc1cc(Br)c(O)c(/C=N/NC(=O)c2ccccc2)c1 [Example 298], the melting point was 207 to 209 °C, the inhibition of growth at 0.05 µg/mL [1, 6] was 0.7% and the “LEPTNO % Inhn. Plus Copper Observed” value [1, 7] was 95.0%. The “TLB % Control” value [2, 8] was 74.6%.

With O=C(N/N=C/c1cc(C(F)(F)F)ccc1O)c1ccccc1C(F)(F)F [Example 444] the melting point was 174 to 176 °C, the inhibition of growth at 0.05 µg/mL [1, 6] was 0% and the “LEPTNO % Inhn. Plus Copper Observed” value [1, 7] was 100.0%. The “TLB % Control” value [2, 8] was 91.0%.

In the case of N#Cc1ccc(C(=O)N/N=C/c2cc(Cl)cc(Cl)c2O)cc1 [Example 310], the melting point is reported as 234 to 270 °C, the inhibition of growth at 0.05 µg/mL [1, 6] is reported as 2.4% and the “LEPTNO % Inhn. Plus Copper Observed” value [1, 7] is reported as 96.6%. The “TLB % Control” value [2, 8] was 64.0%.

With O=C(N/N=C/c1cc(Br)cc(F)c1O)c1ccccc1 [Example 410] the melting point was 211 to 212 °C, the inhibition of growth at 0.05 µg/mL [1, 6] was 1.9% and the “LEPTNO % Inhn. Plus Copper Observed” value [1, 7] was 97.6%. For the same compound, the “TLB % Control” value [2, 8] was 95.0%.

With C/C(=N\NC(=O)c1ccc(C)cc1C)c1ccccc1O [Example 33] the melting point was 188 to 190 °C, the “LEPTNO % Inhn. Minus Copper Observed” value [1, 3] was 0.0% and the “LEPTNO % Inhn. Plus Copper Observed” value [1, 4] was 93.1%. For the same compound, the “TLB % Control” value [2, 5] was 50.9%.

In the case of COc1ccc(O)c(/C(C)=N/NC(=O)c2ccccc2Cl)c1 [Example 265], the melting point is reported as 170 to 184 °C, the inhibition of growth at 0.05 µg/mL [1, 3] is reported as 0% and the “LEPTNO % Inhn. Plus Copper Observed” value [1, 4] is reported as 98.1%. For the same compound, the “TLB % Control” value [2, 5] was 15.0%.

With Cc1cccc(C(=O)N/N=C/c2cc(Cl)cc(Cl)c2O)c1O [Example 73] the melting point was 202 to 209 °C, the inhibition of growth at 0.05 µg/mL [1, 3] was 8.6% and the “LEPTNO % Inhn. Plus Copper Observed” value [1, 4] was 98.0%. The “TLB % Control” value [2, 5] was 87.3%.

With O=C(N/N=C/c1ccc(C(F)(F)F)cc1O)c1ccccc1 [Example 294] the melting point was 215 to 217 °C, the inhibition of growth at 0.05 µg/mL [1, 3] was 1.7% and the “LEPTNO % Inhn. Plus Copper Observed” value [1, 4] was 94.2%. For the same compound, the “TLB % Control” value [2, 5] was 72.9%.

For Cc1ccc(C(=O)N/N=C/c2cc(C(F)(F)F)cc(Cl)c2O)cc1 [Example 322], the melting point was 269 to 271 °C, the inhibition of growth at 0.05 µg/mL [1, 6] was 20.9% and the “LEPTNO % Inhn. Plus Copper Observed” value [1, 7] was 97.9%. For the same compound, the “TLB % Control” value [2, 8] was 95.0%.

For C/C(=N\NC(=O)c1cccc(Cl)c1)c1ccc(Cl)cc1O [Example 256], the melting point was 222 to 223 °C, the inhibition of growth at 0.05 µg/mL [1, 3] was 3% and the “LEPTNO % Inhn. Plus Copper Observed” value [1, 4] was 98.7%. For the same compound, the “TLB % Control” value [2, 5] was 18.0%.

For O=C(N/N=C/c1cc([N+](=O)[O-])cc(Br)c1O)c1cccc(Cl)c1 [Example 201], the melting point was 276 to 280 °C, the inhibition of growth at 0.05 µg/mL [1, 3] was 4% and the “LEPTNO % Inhn. Plus Copper Observed” value [1, 4] was 96.0%. The “TLB % Control” value [2, 5] was 50.9%.

For O=C(N/N=C/c1c(Cl)ccc(Cl)c1O)c1ccc(F)cc1 [Example 368], the melting point was 264 to 267 °C, the inhibition of growth at 0.05 µg/mL [1, 6] was 0% and the “LEPTNO % Inhn. Plus Copper Observed” value [1, 7] was 96.9%. For the same compound, the “TLB % Control” value [2, 8] was 98.0%.

For CCOc1cccc(C(=O)N/N=C/c2cc(Cl)cc(Cl)c2O)c1 [Example 86], the melting point was 207 to 209 °C, the inhibition of growth at 0.05 µg/mL [1, 3] was 0.3% and the “LEPTNO % Inhn. Plus Copper Observed” value [1, 4] was 97.6%. For the same compound, the “TLB % Control” value [2, 5] was 80.7%.

With O=C(N/N=C/c1cc(Cl)cc(C(F)(F)F)c1O)c1cccc(Cl)c1 [Example 380] the melting point was 228 to 229 °C, the inhibition of growth at 0.05 µg/mL [1, 6] was 36.1% and the “LEPTNO % Inhn. Plus Copper Observed” value [1, 7] was 98.3%. The “TLB % Control” value [2, 8] was 100.0%.

With COc1ccc(/C(C)=N/NC(=O)c2ccc(C)cc2)c(O)c1 [Example 283] the melting point was 206 to 207 °C, the inhibition of growth at 0.05 µg/mL [1, 3] was 0% and the “LEPTNO % Inhn. Plus Copper Observed” value [1, 4] was 95.9%. For the same compound, the “TLB % Control” value [2, 5] was 67.0%.

In the case of O=C(N/N=C/c1cc(C(F)(F)F)cc(C(F)(F)F)c1O)c1cccc([N+](=O)[O-])c1 [Example 338], the melting point is reported as 256 to 258 °C, the inhibition of growth at 0.05 µg/mL [1, 6] is reported as 9% and the “LEPTNO % Inhn. Plus Copper Observed” value [1, 7] is reported as 98.1%. The “TLB % Control” value [2, 8] was 96.0%.

For O=C(N/N=C/c1c(C(F)(F)F)ccc(Cl)c1O)c1cccc(Cl)c1 [Example 451], the melting point was 242 to 245 °C, the inhibition of growth at 0.05 µg/mL [1, 6] was 4.6% and the “LEPTNO % Inhn. Plus Copper Observed” value [1, 7] was 100.0%. For the same compound, the “TLB % Control” value [2, 8] was 100.0%.

For O=C(N/N=C/c1cc(Cl)ccc1O)c1cccc([N+](=O)[O-])c1 [Example 10], the melting point was 224 to 227 °C, the inhibition of growth at 0.05 µg/mL [1, 3] was 6.9% and the “LEPTNO % Inhn. Plus Copper Observed” value [1, 4] was 97.2%. The “TLB % Control” value [2, 5] was 96.0%.

For C/C(=N\NC(=O)c1ccccc1)c1ccc(Cl)cc1O [Example 251], the melting point was 236 to 237 °C, the inhibition of growth at 0.05 µg/mL [1, 3] was 3.5% and the “LEPTNO % Inhn. Plus Copper Observed” value [1, 4] was 98.1%. The “TLB % Control” value [2, 5] was 33.0%.

In the case of C/C(=N\NC(=O)c1ccc(Br)cc1)c1cccc([N+](=O)[O-])c1O [Example 522], the melting point is reported as 244 to 252 °C, the inhibition of growth at 0.05 µg/mL [1, 6] is reported as 9.4% and the “LEPTNO % Inhn. Plus Copper Observed” value [1, 7] is reported as 97.3%. The “TLB % Control” value [2, 8] was 95.0%.

In the case of COc1ccc(O)c(/C(C)=N/NC(=O)c2ccc(Cl)cc2)c1 [Example 267], the melting point is reported as 193 to 196 °C, the inhibition of growth at 0.05 µg/mL [1, 3] is reported as 5.7% and the “LEPTNO % Inhn. Plus Copper Observed” value [1, 4] is reported as 98.3%. For the same compound, the “TLB % Control” value [2, 5] was 33.0%.

With O=C(N/N=C/c1cc(C(F)(F)F)ccc1O)c1cccc(F)c1 [Example 437] the melting point was 188 to 196 °C, the inhibition of growth at 0.05 µg/mL [1, 6] was 9.2% and the “LEPTNO % Inhn. Plus Copper Observed” value [1, 7] was 97.0%. For the same compound, the “TLB % Control” value [2, 8] was 100.0%.
